Assay results published in patent US7384983B2, “Inhibitor of monoamine uptake” (Eli Lilly and Company, priority 2001, dated 2008).

Assays:
[1] = biological target: uptake of serotonin; assay: Microdialysis Assays of Monoamines: inhibition of serotonin uptake; conditions: tested essentially as described for microdialysis assays
Procedure: (§1) Microdialysis Assays of Monoamines
(§2) Sprague-Dawley rats (Harlan or Charles River) weighing 270-300 grams are surgically implanted with microdialysis probes under chloral hydrate/pentobarbital anesthesia (170 and 36 mg/kg i.p. in 30% propylene glycol, 14% ethanol) as described by Perry and Fuller. (Perry and Fuller, Effect of fluoxetine on serotonin and dopamine concentration in rat hypothalamus after administration of fluoxetine plus L-5-hydroxytryptophan, Life Sci., 50, 1683-90 (1992)). A David Kopf stereotaxic instrument is used to implant the probe unilaterally in the hypothalamus at coordinates rostral −1.5 mm, lateral −1.3 mm, and ventral −9.0 mm (Paxinos and Watson, 1986). After a 48-hour recovery period, rats are placed in a large plastic bowl with a mounted liquid swivel system (CMA/120 system for freely moving animals, Bioanalytical Systems, West Lafayette, Ind.). Filtered artificial cerebrospinal fluid (CSF) (150 mM NaCl, 3.0 MM KCl, 1.7 mM CaCl2, and 0.9 mM MgCl2) is perfused through the probe at a rate of […]. […]
(§3) The method used to measure monoamines is as described by Perry and Fuller (1992). […] The electrochemical detector (EG&G, Model 400) for the amine column is set at a potential of 400 mV and a sensitivity of 0.2 nA/V. Basal levels are measured for at least 90 minutes prior to drug administration. […]

[2] = biological target: uptake of norepinephrine; assay: Microdialysis Assays of Monoamines: inhibition of norepinephrine uptake; type: in vivo, Sprague-Dawley rats; conditions: tested essentially as described for microdialysis assays
Procedure: as §1, §2, §3

- Ki [1]: 43 nM
- Ki [2]: 3 nM
Compound: CNCC[C@@H](Oc1ccc(O)cc1C)c1ccccc1 [R-(−)-N-methyl 3-((2-methyl-4-hydroxyphenyl)oxy)-3-phenyl-1-aminopropane]
